Patent publication US20040253647A1, “Cell-based high-throughput screening methods” (priority 2001, published 2004)
Peptide text beside a SMILES is read from it. * marks the point of attachment. Cbz = O=C(OCc1ccccc1)*

What was measured:
Type in all cases: cell-based, murine
[1] = tested on: βCTF levels in L/APP cells (L cell line overexpressing human APP695); test: βCTF ELISA (C1/6.1 capture, JRF/AβN/25 detection) on cell lysates; conditions: for reduction of βCTF levels relative to control: 10 μg/ml for 6 hours (FIG. 10B); for βCTF levels: control 2.7 (FIG. 8A)
Procedure: (§1) Cell lines, cDNA constructs, and transfections. Ltk-cells (a murine fibroblast-like cell line; (S. Kit et al., 1967, J. Virol., 1(1): 238-240) were maintained at 37° C. and 5% CO2 in high glucose DMEM, (Celigro, Hedon, Va.) supplemented to contain 10% fetal bovine serum (Gemini, Woodland, Calif.), 2 mM glutamax I (Gibco/BRL, Gaithersburg, Md.), and penicillin/streptomycin (Celigro). cDNAs encoding human APP695 and human rab5 were inserted into the mammalian expression vector pcDNA3 (Invitrogen, Carlsbad, Calif.). Following transfection using lipofectin (manufacturer's protocol; Gibco/BRL), stable L cell lines overexpressing APP695 were selected in 400 μg/ml G418 (Gemini) and screened for expression. Transient transfections with rab5 were done using lipofectAMINE (Gibco/BRL) or fugene (Boehringer-Mannheim, Indianapolis, Ind.) according to the manufacturers' protocol.
(§2) Sandwich ELISAs. Sandwich ELISAs using the antibodies as presented in Table 1 were performed essentially as has been reported (C. Janus et al. Id.; R. Rozmahel et al., Neurobiology of Aging, 23:187-194; and P. M. Mathews et al., 2002, J. Biol. Chem., 277: 5299-5307), with modifications to detect cell-associated APP metabolites. The wells of Nunc-Immuno PIates (Nunc A/S, Roskilde, Denmark) were coated overnight at 4° C. using 20 μg/ml of C1/6.1 and the remaining protein binding sites were blocked by incubating with 1% Block Ace (Yukijirushi Milk, Sapporo Japan) in PBS (200 μl/well) for 4 hours at room temperature.
(§3) For the βCTF ELISA, a synthetic peptide was prepared, i.e., […], (SEQ ID NO:1), that contains both the JRF/AβN/25 epitope (SEQ ID NO:4) and the C1/6.1 epitope (SEQ ID NO:2), (see Table I). For the APP/total CTF ELISA, a glutathione S-transferase fusion protein containing the C-terminal 99 residues of human APP (GST-βPP672-770; (K. Islam and E. Levy, 1997, Am. J. Pathol. 151(1):265-71) was prepared. This fusion protein contains both the C1/6.1 and C2/7.1 epitopes. These standards, prepared as stock solutions, were dissolved in DMSO, stored at −70° C., and were further diluted in buffer containing 20 mM Na phosphate, 2 mM EDTA,. 400 mM NaCl, 0.2% BSA, 0.05% CHAPS, 0.4% Block Ace and 0.05% NaN3, pH 7.0 immediately, prior to use.
(§4) ELISA plates were incubated overnight at 4° C. with samples and standards. Samples, as described herein, were cell lysates prepared in 1% Triton X-100®, 140 mM NaCl, 25 mM Tris (pH 7.4), 0.5 mM EDTA, and protease inhibitors. Lysates were vortexed briefly, allowed to rest on ice for 30 minutes, and centrifuged at 6,000 rpm in an Eppendorf centrifuge. The supernatant was used for the ELISA. Following overnight binding of APP and APP metabolites to the capture antibody (C/1/6.1), the wells were washed twice with phosphate buffered saline (PBS) containing 0.5% Triton X-100®/0.05% Tween-20 followed by two washes with PBS. A solution containing 20 mM Na phosphate, 2 mM EDTA, 400 mM NaCl, and 1% BSA, pH 7.0 was then added to the wells for 1 hour at room temperature.
(§5) APP and cell-associated APP metabolites were detected by incubating for 4 hours at room temperature with horseradish peroxidase (HRP)-conjugated C2/7.1 or JRF/AβN/25 diluted in 20 mM Na phosphate, 2 mM EDTA, 400 mM NaCl, 1% BSA, pH 7.0. Thereafter, the wells were again washed twice with phosphate buffered saline (PBS) containing 0.5% Triton X-100®/0.05% Tween-20, followed by two washes with PBS. ELISA plates were developed using a color reaction (TMB Microwell Peroxidase Substrate System, Kirkegaard & Perry, Gaithersburg, MD) and the OD450 was read. ELISA signals are reported as the mean ±SE of two or more wells in femtomoles per ml relative to standard.
(§6) Preparation of cell lysates for ELISA. Cells were seeded into 6-well dishes and allowed to settle overnight. […]

[2] = tested on: Aβ1-40 secreted by L/APP cells; test: Aβ1-40 ELISA of growth media; conditions: 10 μg/ml, 6 hour incubation (FIG. 10C)
Procedure: L/APP cells were plated at equal density and APP expression was induced. Cells were then incubated for 6 hours without treatment, or with the addition of 10 μg/ml cyclohexamide or 10 μg/ml 3-methyl adenine (3MA). APP/total CTF levels (FIG. 10A) and βCTF levels (FIG. 10B) in cell lysates were then determined by ELISA. Aβ1-40 (FIG. 10C) and Aβ1-42 (FIG. 10D) levels secreted into the growth media during this 6 hour incubation were determined by ELISA (C. Janus et al., 2000, Nature, 408(6815):979 982). Data are expressed as a percentage of, the level seen in untreated control cells for each assay.
In addition, Aβ levels in the growth media were examined from these test cells. […] Again, the reduction in Aβ generation obtained with cyclohexamide treatment is due to non-specific cytotoxicity, while the reduction in Aβ generation obtained following 3MA treatment is linked to a specific reduction in βCTF generation.

[3] = tested on: APP holoprotein and all CTFs in L/APP cells; test: APP/total CTF ELISA (C1/6.1 capture, C2/7.1 detection) on L/APP cell lysates; conditions: for cellular APP levels (APP/total CTF) relative to untreated control cells: 10 μg/ml for 6 hours (FIG. 10A)
Procedure: as §1, §2, §3, §4, §5, §6

[4] = tested on: APP holoprotein, αCTF and βCTF in L/APP cells; test: Metabolic pulse-chase labeling and immunoprecipitation of APP and CTFs; conditions: for levels of αCTFs and βCTFs after 1 hour chase (C1/6.1 immunoprecipitation): 10 μM, 3 hours pretreatment plus pulse and chase (FIG. 1)
Procedure: Metabolic labeling, immunoprecipitation and Western blot analysis. To detect APP and CTFs, 5×10^5 cells were seeded onto 35-mm diameter tissue culture dishes followed by induction of human APP695 expression with 20 mM butyrate for 24 hours (P. M. Mathews et al., 1992, J. Cell. Biol., 118(5):1027-1040; P. M. Mathews et al., 2000 Mol Med., 6(10)878-891). Cultures were methionine/cysteine starved for 20 minutes, pulse-labeled for 15 minutes with 100 μCi/ml TRANS^35S-LABEL (Dupont-NEN), washed, and chased in complete medium containing 2 mM unlabeled methionine (P. M. Mathews et al., 1992, J. Cell. Biol., 118(5):1027-1040). Calpain inhibitors, as described herein, were added to the growth medium 3 hours prior to methionine/cysteine starvation and then throughout pulse-labeling and chase.
Cell lysates (prepared in 1% Triton X-100, 140 mM NaCl, 25 mM Tris pH 7.4, 0.5 mM EDTA, 10 mM methionine and protease inhibitors; (P. M. Mathews et al., 1992, J. Cell. Biol., 118(5):1027-1040; A. Beggan et al., 1996, J. Biol. Chem., 271(34):20895-20902) were subjected to immunoprecipitation with various monoclonal antibodies as described in Example 2. Immunoprecipitated proteins were sized by SDS-PAGE and labeled proteins were visualized by exposure to x-ray film and analyzed quantitatively using a Storm 840 phosphorimager (Molecular Dynamics/Amersham Biosciences, Sunnyvale, Calif. and/or by scan analysis (NIH Image).
To determine whether a particular monoclonal antibody detected APP holoprotein and/or αCTF and/or βCTF or both, L cells overexpressing human APP695 (L/APP cells) were metabolically labeled for 15 minutes, and then were chased for 1 hour (FIG. 1, lanes 1-6).
Thus, in addition to control conditions, cells were treated for 3 hours prior to, as well as during, the pulse and chase periods with the indicated calpain inhibitors (FIG. 1, lanes 7-18) to increase the levels of metabolically labeled CTFs prior to immunoprecipitation. Equal volumes of detergent lysates prepared from the pulse and chase periods were subjected to immunoprecipitation with each of the monoclonal antibodies and labeled APP species were resolved on 4-20% gradient SDS-PAGE.
The pulse-chase experiment shown in FIGS. 2A and 2B was designed to determine if C1/6.1 was able to detect other species of CTFs (e.g. the γCTF). Accordingly, L/APP cells were pulse-labeled for 15 minutes and chased for the indicated times up to 6 hours prior to immunoprecipitation of lysates with C1/6.1.

[5] = tested on: APP holoprotein and all CTFs in parental L cells; test: APP/total CTF ELISA on parental L cell lysates; conditions: 10 μM calpeptin 6 hours (FIG. 7B)
Procedure: as §1
Sandwich ELISAs. […]
APP and cell-associated APP metabolites were detected by incubating for 4 hours at room temperature with horseradish peroxidase (HRP)-conjugated C2/7.1 or JRF/AβN/25 diluted in 20 mM Na phosphate, 2 mM EDTA, 400 mM NaCl, 1% BSA, pH 7.0. […] ELISA plates were developed using a color reaction (TMB Microwell Peroxidase Substrate System, Kirkegaard & Perry, Gaithersburg, MD) and the OD450 was read. […]

[6] = tested on: APP CTFs in L/APP cells; test: Western blot analysis using C1/6.1; conditions: 10 μm calpeptin 6 hours (FIG. 5A)
Procedure: For Western blot analysis, protein concentration in cell lysates was determined (BioRad DC Protein Assay, BioRad, Rockville Center, N.Y.), and equal amounts of proteins were separated by SDS-PAGE and transferred to PVDF membrane. Membranes were incubated in C1/6.1 (2 μg/ml) overnight, washed, and incubated with HRP-conjugated goat anti-mouse IgG for 1.5 hours. Membranes were incubated in ECL substrate (Amersham, Arlington Heights, Ill.) and exposed to x-ray film.
In this rab5 overexpression experiment, L/APP cells were transiently-transfected with no DNA (FIG. 5A, lanes 1 and 2), or rab5 cDNA (FIG. 5A, lanes 3-5) and the levels of APP holoprotein and CTFs were determined by Western blot analysis using C1/6.1 (FIG. 5A).

[7] = 75 μg/ml cyclohexamide 6 hours, versus control

## Cn1cnc(N)c2ncnc1-2 [3MA, 3-methyl adenine]
[1]
  reduction of βCTF levels relative to control: 50%
[2]
  Aβ1-40 levels in growth media relative to control: reduction in Aβ1-40 levels relative to control
[3]
  cellular APP levels (APP/total CTF) relative to untreated control cells: did not reduce cellular APP levels

## CC(C)[C@H](NC(=O)OCc1ccccc1)C(=O)N[C@H](C=O)Cc1ccccc1 [calpain inhibitor III] (Cbz-Val-Phe-aldehyde)
[4]
  levels of αCTFs and βCTFs after 1 hour chase (C1/6.1 immunoprecipitation): substantial and apparently proportionate increase in the levels of both αCTFs and βCTFs

## C[C@@H]1C[C@@H]([C@H](O)CC2CC(=O)NC(=O)C2)C(=O)[C@@H](C)C1 [cyclohexamide]
[1]
  reduction of βCTF levels relative to control: reduced βCTF levels somewhat more
[1]; 75 μg/ml cyclohexamide 6 hours
  βCTF levels: 0.6 fmol/mL
[1]; [7]
  reduction of βCTF levels: 78%
[2]
  Aβ1-40 levels in growth media relative to control: reduction in Aβ1-40 levels relative to control
[3]
  cellular APP levels (APP/total CTF) relative to untreated control cells: cyclohexamide treatment did
[3]; 75 μg/ml cyclohexamide 6 hours, control 608 (FIG. 8B)
  APP/total CTF levels: 74 fmol/mL
[3]; [7]
  reduction of APP/total CTF levels: 88%

## CCCC[C@@H](C=O)NC(=O)[C@H](CC(C)C)NC(=O)OCc1ccccc1 [calpeptin]
[5]
  APP/total CTF ELISA signal: increased the signal in the L cells, although not to a statistically significant degree
[6]
  levels of CTFs by Western blot: greatly increased the levels of CTFs detected
[1]; 10 μM calpeptin 6 hours
  βCTF levels: 5.4 fmol/mL
[1]; 10 μM calpeptin 6 hours, untreated 16.1 (FIG. 5B)
  amount of βCTFs detected by ELISA: 26.0 fmol/mL
[1]; 10 μM calpeptin for 6 hours, untreated 5.8±0.3 (FIG. 4)
  βCTF levels detected by ELISA: 10.0 ± 0.6 fmol/mL
[4]; 10 μM calpeptin (FIG. 2B)
  generation of α and βCTFs during the initial 1 hour of chase: substantially increased the generation of both α and βCTFs
  turnover of CTFs: did not appear to reduce the turnover of CTFs
[4]; 10 μM calpeptin, chase up to 6 hours (FIG. 2A)
  turnover of APP holoprotein: unchanged
[4]
  levels of αCTFs and βCTFs after 1 hour chase (C1/6.1 immunoprecipitation): substantial and apparently proportionate increase in the levels of both αCTFs and βCTFs
[3]; 10 μM calpeptin 6 hours (FIG. 7B)
  APP/total CTF ELISA signal: greatly increased the ELISA signal
[3]; 10 μM calpeptin 6 hours (FIG. 8B)
  change in APP/total CTF levels: smaller relative increase in APP/total CTF levels
